“Also recorded” adds a separate entry of the source.
Tests used:
[1] = target: T1, recombinant human mGlu7 receptor (Homo sapiens, UniProt Q14831); experiment: NAM mGlu7 activity, forskolin-induced cAMP (HTRF) in T-REx 293 cell line; assay type: cell-based; conditions: forskolin-stimulated cAMP response, 5 µM LSP4-2022 (EC80), T-REx 293 human mGlu7; for Inhibition (%): 10 μM compound
T1 construct: expressed in transfected cells; host or cells: T-REx 293 (tetracycline-inducible)
Protocol: The cell lines with the tetracycline-inducible expression of human metabotropic receptors 4, 7, and 8 were described in detail by Chruścicka et al. (mGlu4 receptor NM_000841, mGlu7 receptor NM_000844.2, and mGlu8 receptor NM_000845). Cells were grown under standard cell culture conditions (37 °C, 5% CO2) in DMEM supplemented with 10% tetracycline-free FBS. The expression was induced through the addition of tetracycline to the culture medium at 0.75 μg/mL.
The determination of the intracellular cAMP through homogeneous time-resolved fluorescence (HTRF) was described in detail previously. Briefly, 48 h before the experiments, the expression of the receptor was induced through the addition of tetracycline to the culture medium; the next day, FBS and L-Glu were removed from the medium. Just before the cAMP measurement, the cells were detached and centrifuged. Then, the cell suspension in Hanks-HEPES (130 mM NaCl, 5.4 mM KCl, 1.8 mM CaCl2, 0.8 mM MgSO4, 0.9 mM NaH2PO4, 20 mM HEPES, and 3.25 mM glucose; pH 7.4) was incubated in the presence of 10 µM forskolin (mGlu7 receptor, 3 µM forskolin), the agonist LSP4-2022 or L-Glu (for mGlu4 and mGlu8), and a compound for 5 min. The intracellular concentration of cyclic AMP was measured by means of a cAMP Gi HTRF kit from Cisbio, according to the manufacturer’s instructions. After 1 h of incubation at room temperature, the fluorescence at 620 nm and 665 nm was read (Tecan Infinite M1000). The results were calculated as the 665 nm/620 nm ratio multiplied by 10^4. Each sample was prepared in triplicate. Data were analyzed using GraphPad Prism version 5.04 for Windows (GraphPad Software, San Diego, USA).
The activity of the compounds was examined in the T-REx 293-cell-line-expressing recombinant human mGlu7 receptor by detecting the level of cyclic AMP in the presence of 5 µM forskolin [7, 41]. […] The substances were incubated with 5 µM LSP4-2022 (EC80).
Firstly, all compounds were screened at 10 μM using three cell lines expressing the mGlu4/7/8 receptor to evaluate selectivity. For the mGlu4 and mGlu8 receptors, glutamic acid was used as an agonist and had good potency. […] VU0155041 and AZ12216052 were used as reference compounds for the mGlu4 and mGlu8 receptors, respectively. The parameter described as “% of inhibition” was introduced to compare the bioactivity of the new compounds to the reference NAM at a 10 μM concentration in the presence of 5 μM LSP4-2022 (0%) and 3 μM forskolin (100%). […] For compounds that passed the screening procedure, the dose–response curve in the presence of LSP4-2022 in 5 μM was evaluated compared to reference NAM ADX71743. Only compounds ALX-063, ALX-065, and ALX-171 (Figure S3, Supplementary Materials) met our conditions regarding bioactivity. All of them were further investigated to determine the EC50 and receptor selectivity. […]
2.1. NAM mGlu7 receptor activity on T-Rex 293 cell line
The activity of compounds was examined on T-REx 293 cell line expressing recombinant human mGlu7 receptor by detecting the level of cyclic AMP in the presence of 5 µM forskolin [14,15]. The cell line was […]
incubated with 5 µM of LSP4-2022 (EC80).

[2] = target: T1, recombinant human mGlu7 receptor; experiment: as above; assay type: cell-based
[3] = test system: animal models of schizophrenia; conditions: mGlu7 PAM; cited from earlier work

T1 sequence (Q14831 35-915): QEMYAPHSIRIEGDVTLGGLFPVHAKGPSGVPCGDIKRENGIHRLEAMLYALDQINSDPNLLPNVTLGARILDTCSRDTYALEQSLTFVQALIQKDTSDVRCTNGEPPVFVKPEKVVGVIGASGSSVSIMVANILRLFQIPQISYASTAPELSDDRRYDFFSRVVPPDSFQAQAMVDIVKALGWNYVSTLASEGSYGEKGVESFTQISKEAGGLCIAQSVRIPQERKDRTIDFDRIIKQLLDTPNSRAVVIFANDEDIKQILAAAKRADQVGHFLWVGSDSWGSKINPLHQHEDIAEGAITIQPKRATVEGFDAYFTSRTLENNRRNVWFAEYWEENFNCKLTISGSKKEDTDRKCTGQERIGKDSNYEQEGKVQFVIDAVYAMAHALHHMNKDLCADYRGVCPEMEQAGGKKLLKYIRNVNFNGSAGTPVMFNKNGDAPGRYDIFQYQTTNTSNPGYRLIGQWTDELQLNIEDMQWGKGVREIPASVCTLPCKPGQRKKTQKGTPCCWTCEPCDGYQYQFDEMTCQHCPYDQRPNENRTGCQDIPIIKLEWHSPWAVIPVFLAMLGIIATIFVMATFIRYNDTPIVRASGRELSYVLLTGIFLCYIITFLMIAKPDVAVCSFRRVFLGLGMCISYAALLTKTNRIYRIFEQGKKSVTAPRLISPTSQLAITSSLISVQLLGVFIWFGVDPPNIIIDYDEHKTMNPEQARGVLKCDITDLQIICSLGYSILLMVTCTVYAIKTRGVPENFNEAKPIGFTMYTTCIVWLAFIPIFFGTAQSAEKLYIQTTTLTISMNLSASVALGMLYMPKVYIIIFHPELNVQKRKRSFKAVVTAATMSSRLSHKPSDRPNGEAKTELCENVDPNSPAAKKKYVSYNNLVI

SMILES | Inhibition (%) [1] | further results
COc1ccccc1-c1ccc2nc(-c3ccccc3Cl)n(C)c(=O)c2c1 [A9-4] | Inactive | –
COc1cccc(-c2ccc3nc(-c4ccccc4Cl)n(C)c(=O)c3c2)c1 [A9-5] | Inactive | –
COc1ccc(-c2ccc3nc(-c4ccccc4Cl)n(C)c(=O)c3c2)cc1 [A9-6] | not observed; also recorded: Inactive | –
COc1ccc(-c2ccc3nc(-c4ccccc4Cl)n(C)c(=O)c3c2)c(OC)c1 [A9-8] | Inactive | –
COc1ccc(-c2ccc3nc(-c4ccccc4Cl)n(C)c(=O)c3c2)cc1OC [A9-9] | Inactive | –
COc1ccc(OC)c(-c2ccc3nc(-c4ccccc4Cl)n(C)c(=O)c3c2)c1 [A9-10] | Inactive | –
COc1cc(OC)cc(-c2ccc3nc(-c4ccccc4Cl)n(C)c(=O)c3c2)c1 [A9-11] | Inactive | –
COc1cccc(OC)c1-c1ccc2nc(-c3ccccc3Cl)n(C)c(=O)c2c1 [A9-12] | Inactive | –
Cn1c(-c2ccccc2)nc2ccc(-c3ccccc3)cc2c1=O [ALX-063, 3-methyl-2,6-diphenylquinazolin-4(3H)-one] | – | inhibition at 10 µM ([1]; T-REx-293, 10 μM compound): 42.5 ± 36.5%; IC50 ([2]; T-REx 293 cells expressing human mGlu7, 5 µM LSP4-2022 (EC80), 5 µM forskolin): 6.5 µM
c1ccc(C(NCCNC(c2ccccc2)c2ccccc2)c2ccccc2)cc1 [AMN082] | – | activity in animal models [3]: propsychotic activity
N[C@@H](CCC(=O)O)C(=O)O [L-Glu] | – | agonist potency at mGlu7 receptor ([2]; agonist compared with LSP4-2022): ~ 1 mM

— publication PMC9916658, “Design and Synthesis of New Quinazolin-4-one Derivatives with Negative mGlu7 Receptor Modulation Activity and Antipsychotic-Like Properties” (International Journal of Molecular Sciences, 2023)
